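These data come from cells grown in 96-well plates and exposed to compound for 48 hours at five concentrations. The concentration for 50% growth inhibition is given as GI50.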 The source made the active and inactive calls. No stated cut-off is given here; in the data, active = GI50 up to about 1.1 µM and inactive = higher.
What was measured:
Experiment in all cases: NCI tumour cell line growth inhibition, 48 h
[1] = system: ACHN
[2] = system: CCRF-CEM
[3] = system: HCT-116
[4] = system: HL-60
[5] = system: HOP-62
[6] = system: HOP-92
[7] = system: HT-29
[8] = system: IGROV-1
[9] = system: LOX IMVI
[10] = system: NCI-H23
[11] = system: OVCAR-4
[12] = system: RPMI-8226
[13] = system: RXF 393
[14] = system: TK-10
[15] = system: UACC-257
[16] = system: UO-31
[17] = system: NCI-H522
[18] = system: SK-MEL-28

Measured: GI50

CN1CCc2c1nc(-c1cccnc1)c1c2N(C)CC1
inactive: [1] > 100 µM | [2] > 100 µM | [3] > 100 µM | [4] > 100 µM | [5] > 100 µM | [6] 88.5 µM | [7] 95.3 µM | [8] > 100 µM | [9] > 100 µM | [10] > 100 µM | [11] > 100 µM | [12] > 100 µM | [13] > 100 µM | [14] > 100 µM | [15] > 100 µM | [16] 48.8 µM

CNC(=S)N/N=C1\CC(c2ccccc2)Oc2ccccc21 (configuration not stated)
inactive: [1] > 100 µM | [2] > 100 µM | [3] > 100 µM | [6] 18.3 µM | [7] > 100 µM | [8] > 100 µM | [9] > 100 µM | [10] > 100 µM | [17] > 100 µM | [11] 18.6 µM | [13] > 100 µM | [18] > 100 µM | [14] > 100 µM | [16] 8.11 µM

C/C=C1\CN2CCc3c([nH]c4ccccc34)C2CC1CCO (configuration not stated)
inactive: [1] > 100 µM | [2] > 100 µM | [3] > 100 µM | [4] > 100 µM | [5] > 100 µM | [6] 48 µM | [7] > 100 µM | [8] > 100 µM | [9] > 100 µM | [10] > 100 µM | [17] > 100 µM | [11] > 100 µM | [13] > 100 µM | [18] > 100 µM | [14] > 100 µM | [15] > 100 µM | [16] 74.8 µM

CC[P+]1(c2ccccc2)CCCCC1
inactive: [1] > 100 µM | [2] > 100 µM | [3] > 100 µM | [4] > 100 µM | [5] > 100 µM | [6] > 100 µM | [7] > 100 µM | [8] > 100 µM | [9] > 100 µM | [10] > 100 µM | [11] > 100 µM | [12] > 100 µM | [13] > 100 µM | [18] > 100 µM | [14] > 100 µM | [15] > 100 µM | [16] > 100 µM

COc1ccc(C2C3=C(COC3=O)Oc3cc4c(cc32)OCO4)cc1 (configuration not stated)
inactive: [1] 21.1 µM | [2] 6.46 µM | [3] 13.2 µM | [4] 3.97 µM | [5] 8.39 µM | [6] 14.9 µM | [7] 3.81 µM | [8] 32.2 µM | [9] 27.4 µM | [10] 20.1 µM | [11] 27.3 µM | [12] 12.7 µM | [13] 19.1 µM | [18] 47.9 µM | [14] 29.3 µM | [15] 39.3 µM | [16] 16.7 µM

O=c1c(Cc2ccccc2)c(O)cc2n1CCC2
inactive: [1] > 100 µM | [2] 41.5 µM | [3] > 100 µM | [5] > 100 µM | [6] > 100 µM | [7] > 100 µM | [8] > 100 µM | [9] > 100 µM | [10] > 100 µM | [17] > 100 µM | [11] > 100 µM | [12] > 100 µM | [13] > 100 µM | [18] > 100 µM | [14] > 100 µM | [15] > 100 µM | [16] > 100 µM

N#CC(C#N)=Cc1ccc(CP(=O)(O)O)cc1
inactive: [1] > 100 µM | [2] 44.2 µM | [3] > 100 µM | [4] 70.6 µM | [5] > 100 µM | [6] > 100 µM | [7] > 100 µM | [8] > 100 µM | [9] > 100 µM | [10] > 100 µM | [17] 59.6 µM | [11] > 100 µM | [12] > 100 µM | [18] > 100 µM | [14] > 100 µM | [15] > 100 µM | [16] > 100 µM

O=CN/C=C\c1cc(O)ccc1O
inactive: [1] 15 µM | [2] 5.11 µM | [3] 10.6 µM | [4] 10.4 µM | [5] 18.6 µM | [6] 14.2 µM | [7] 16.9 µM | [8] > 40.1 µM | [9] 7.23 µM | [10] 15.8 µM | [17] 4.99 µM | [11] 12.7 µM | [12] 13.6 µM | [18] 42.2 µM | [14] > 46.2 µM | [15] 11.7 µM | [16] 13.8 µM

Cc1cccc(NC2=NC(=O)C(CC(=O)Nc3ccccc3Cl)S2)c1 (configuration not stated)
inactive: [1] > 100 µM | [2] > 100 µM | [3] > 100 µM | [4] > 100 µM | [6] > 100 µM | [7] > 100 µM | [8] > 100 µM | [9] > 100 µM | [10] > 100 µM | [11] > 100 µM | [12] > 100 µM | [13] > 100 µM | [18] > 100 µM | [14] > 100 µM | [15] > 100 µM | [16] > 100 µM

COc1ccc(N2C(=O)C3c4[nH]c5ccccc5c4C4CC(C)CC(C)C4C3C2=O)cc1 (configuration not stated)
inactive: [1] > 100 µM | [2] > 100 µM | [3] > 100 µM | [4] > 100 µM | [5] > 100 µM | [6] > 100 µM | [7] > 100 µM | [8] > 100 µM | [10] > 100 µM | [17] > 100 µM | [11] > 100 µM | [12] > 100 µM | [13] > 100 µM | [18] > 100 µM | [15] > 100 µM | [16] > 100 µM

O=C1CSC(C(/N=N/c2ccccc2)=C2Nc3ccccc3N2)=N1
inactive: [1] 31 µM | [2] 5.79 µM | [3] 32.4 µM | [4] 35.9 µM | [5] 23.7 µM | [6] 18.5 µM | [7] 83.4 µM | [8] > 100 µM | [9] 52.1 µM | [10] 74.5 µM | [17] 56.4 µM | [11] > 100 µM | [18] 29.6 µM | [14] > 100 µM | [15] 24.4 µM | [16] 95.7 µM

BrC(Br)([P+](c1ccccc1)(c1ccccc1)c1ccccc1)[P+](c1ccccc1)(c1ccccc1)c1ccccc1
inactive: [1] 17.7 µM | [3] 17.3 µM | [4] 7.94 µM | [5] 40.5 µM | [6] 11.1 µM | [7] 13.6 µM | [8] 18.1 µM | [9] 13.2 µM | [10] 16.8 µM | [17] 15 µM | [11] 12.1 µM | [12] 6.87 µM | [13] 11.1 µM | [18] 16.6 µM | [14] 14.1 µM | [15] 19.5 µM | [16] 23.6 µM
